The values below are quoted from earlier work in US11957779B2, “Agent for dyeing keratinous material, containing aminosilicone, pigment and polysaccharide” (Henkel AG & Co. KGaA, priority 2019, dated 2024).

For series [1] the following is noted: 25° C.
For series [2] the following is noted: 5% solution in water.

For `O=C([O-])C1=NN(c2ccc(S(=O)(=O)[O-])cc2)C(=O)C1N=Nc1ccc(S(=O)(=O)[O-])cc1.[Na+].[Na+].[Na+]` (stereo not drawn) [Acid Yellow 23, trisodium salt of 4,5-dihydro-5-oxo-1-(4-sulfophenyl)-4-((4-sulfophenyl)azo)-1H-pyrazole-3-carboxylic acid], the “solubility in water (in words)” value in series [1] is recorded as “highly soluble”.
As for `CCN(Cc1cccc(S(=O)(=O)[O-])c1)c1ccc(C(=C2C=CC(=[N+](CC)Cc3cccc(S(=O)(=O)[O-])c3)C=C2)c2ccccc2S(=O)(=O)[O-])cc1.[Na+].[Na+]` [Acid Blue 9], the solubility in water entry in series [1] was “more than 20 wt. %”.
`O=C([O-])c1c(Cl)c(Cl)c(Cl)c(Cl)c1-c1c2c(Br)cc(=O)c(Br)c-2oc2c(Br)c(O)cc(Br)c12.O=C([O-])c1c(Cl)c(Cl)c(Cl)c(Cl)c1-c1c2c(Br)cc(=O)c(Br)c-2oc2c(Br)c(O)cc(Br)c12.[Na+].[Na+]` [Acid Red 92, disodium salt of 3,4,5,6-tetrachloro-2-(1,4,5,8-tetrabromo-6-hydroxy-3-oxoxanthen-9-yl)benzoic acid]: in series [1], the solubility in water result is on record as “greater than 10 g/L”.
Consider `Nc1cc(S(=O)(=O)[O-])cc2cc(S(=O)(=O)[O-])c(N=Nc3ccccc3)c(O)c12.[Na+].[Na+]` [Acid Red 33, diantrium salt of 5-amino-4-hydroxy-3-(phenylazo)-naphthalene-2,7-disulphonate], for which the solubility in water in series [1] is 2.5 mg/mL.
For the molecule `O=P([O-])(O)O.[K+]` [Potassium dihydrogen phosphate], the pH value result in series [2] is given as “about 4.4”.
As to `O=S(=O)([O-])c1ccc(N=Nc2c(O)ccc3ccccc23)cc1.[Na+]` [Acid Orange 7, sodium salt of 4-[(2-hydroxy-1-naphthyl)azo]benzene sulphonate], in series [1], the solubility in water result is listed as “more than 7 g/L”.
